Tests used:
estrogen levels = details: while raising testosterone levels; cited from earlier work
Mouse thoracic aortas = assay: Acetylcholine relaxation of mouse thoracic aortic rings on an isometric wire myograph after exposure to MIG; details: mouse thoracic aortic sections incubated with different concentrations of recombinant mouse MIG, pre-contracted with U46619; FIG. 6
Method: Mouse thoracic aortas were carefully dissected, and vessels were cut into small rings and mounted on an isometric wire myograph chambers (Danish Myo Technology) and subjected to a normalization protocol. Following normalization, the vessels were incubated with either PBS or different concentrations of recombinant mouse MIG (R&D systems, catalog number 492-MM). A concentration-dependent contraction curve was created by accumulative application of the prostaglandin agonist U46619. Subsequently, concentration-dependent relaxation curves of Acetylcholine were conducted on these vessels and percent relaxation calculated for each dose.

Molecule: N#Cc1ccc(C(c2ccc(C#N)cc2)n2cncn2)cc1 [Letrozole]
- reduction of estrogen levels (estrogen levels): 98%

B1: MIG: recombinant mouse MIG (R&D systems, catalog number 492-MM); monokine induced by gamma interferon, CXC chemokine (protein, UniProt P18340 22-126, looked up)
C-X-C motif chemokine 9: TLVIRNARCSCISTSRGTIHYKSLKDLKQFAPSPNCNKTEIIATLKNGDQTCLDPDSANVKKLMKEWEKKISQKKKQKRGKKHQKNMKNRKPKTPQSRRRSRKTT
- effect on vasorelaxation (percent relaxation to Acetylcholine) (Mouse thoracic aortas): impaired vascular reactivity with increasing concentrations of MIG

— patent US11359011B2, “Treatment and prevention of cardiovascular disease” (Edifice Health, Inc., priority 2019, dated 2022)
